Here are results for eleven compounds from ChEMBL document CHEMBL1201862, “PubChem BioAssay data set” (2004).

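Briefly, cells in 96-well plates were exposed to five compound concentrations for 48 h, and endpoints were estimated by linear interpolation. GI50 marks 50% less growth.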 The source made the active and inactive calls. No stated cut-off is given here; in the data, active = GI50 up to about 1.1 µM and inactive = higher.

A word on the GI50: it is the concentration giving 50% growth inhibition.

Test systems include BT-549; DU-145; EKVX; KM12; LOX IMVI; MDA-MB-435; MDA-N; NCI-H23; NCI-H460; OVCAR-3; SF-295; SF-539; SN12C; SNB-19; SR; T47D; TK-10; U-251; UACC-257.
Common to all, as to assay: DTP human tumour cell line panel, 48 h

For the compound `CNC(=S)N/N=C/c1ccc([N+](=O)[O-])s1`, the GI50 in the experiment on BT-549 was > 10 µM (inactive); with DU-145, > 10 µM (inactive); in the experiment with EKVX, > 10 µM (inactive); with KM12, 3.99 µM (inactive); in the experiment with LOX IMVI, > 10 µM (inactive); in the experiment on MDA-MB-435 it was > 10 µM (inactive). Moreover, the GI50 with MDA-N was > 10 µM (inactive); with NCI-H23, > 10 µM (inactive); with NCI-H460 it was 6.67 µM (inactive); in the experiment on OVCAR-3, 2.23 µM (inactive); in the experiment on SF-295, > 10 µM (inactive); in the experiment on SF-539, > 10 µM (inactive). Also, the GI50 in the experiment on SN12C is > 10 µM (inactive); with SNB-19, > 10 µM (inactive); in the experiment with SR, 4.81 µM (inactive); in the experiment with T47D, > 10 µM (inactive); in the experiment on TK-10 it was > 10 µM (inactive); in the experiment with U-251, > 10 µM (inactive). Besides, the GI50 in the experiment with UACC-257 was > 10 µM (inactive).

For `N#CC(NC12CC3CC(CC(C3)C1)C2)c1ccc2c(c1)OCO2` (centres undefined), the GI50 with BT-549, in the experiment on DU-145, in the experiment with EKVX, with KM12, in the experiment on LOX IMVI and in the experiment on MDA-MB-435 was > 100 µM (inactive) throughout. The GI50 in the experiment with MDA-N, in the experiment on NCI-H23, in the experiment on NCI-H460, with OVCAR-3, in the experiment on SF-295 and in the experiment with SF-539 was > 100 µM (inactive) in each case. Moreover, the GI50 in the experiment on SN12C, in the experiment with SNB-19, in the experiment on SR, in the experiment with T47D, with TK-10 and with U-251 was > 100 µM (inactive) each time. Further, the GI50 in the experiment with UACC-257 was > 100 µM (inactive).

As for `CCOC(=O)/C(C(=O)c1ccc[nH]1)=C1/CCCN1C`, the GI50 in the experiment with BT-549, with DU-145, with EKVX, in the experiment on KM12, in the experiment on LOX IMVI and in the experiment with MDA-MB-435 was > 100 µM (inactive) throughout. Further, the GI50 with MDA-N, with NCI-H23, in the experiment on NCI-H460, in the experiment with OVCAR-3, in the experiment with SF-295 and in the experiment with SF-539 was > 100 µM (inactive) each time. For the same compound, the GI50 in the experiment on SN12C, in the experiment with SNB-19, in the experiment on SR, with T47D, in the experiment with TK-10 and in the experiment with U-251 was > 100 µM (inactive) throughout. The GI50 in the experiment on UACC-257 was > 100 µM (inactive).

Take `CC(C)(C)c1cc(C(C)(C)C)c(P=C(Cl)Cl)c(C(C)(C)C)c1` (centres undefined): the GI50 with BT-549, with DU-145, in the experiment on EKVX, with KM12, with LOX IMVI and in the experiment with MDA-MB-435 was > 100 µM (inactive) in each case. Also, the GI50 with MDA-N, in the experiment with NCI-H23, with NCI-H460, with OVCAR-3, in the experiment on SF-295 and in the experiment on SF-539 was > 100 µM (inactive) each time. The GI50 in the experiment on SN12C, in the experiment with SNB-19, with SR, with T47D, in the experiment with TK-10 and with U-251 was > 100 µM (inactive) in each case. Also, the GI50 in the experiment on UACC-257 was > 100 µM (inactive).

As to `CCOC(=O)C1C(c2ccc(OC)cc2)c2c(nn(-c3ccccc3)c2O)CC1(C)O` (centres undefined), the GI50 is 0.0159 µM (active) in the experiment on BT-549; 38.8 µM (inactive) in the experiment on DU-145; 51.8 µM (inactive) in the experiment on EKVX; 7.1 µM (inactive) in the experiment with KM12; 0.813 µM (active) with LOX IMVI; 3.02 µM (inactive) in the experiment on MDA-MB-435. In addition, the GI50 is 3.21 µM (inactive) in the experiment with MDA-N; 43.5 µM (inactive) in the experiment with NCI-H23; 5.48 µM (inactive) in the experiment on NCI-H460; 80.4 µM (inactive) in the experiment on OVCAR-3; 2.29 µM (inactive) in the experiment with SF-295; 92.7 µM (inactive) with SF-539. Also, the GI50 is 91.2 µM (inactive) in the experiment with SN12C; 75.2 µM (inactive) in the experiment on SNB-19; 6.49 µM (inactive) in the experiment with SR; 12.9 µM (inactive) with T47D; 50 µM (inactive) with TK-10; 53.3 µM (inactive) in the experiment on U-251. Besides, the GI50 with UACC-257 was 3.31 µM (inactive).

As to `O=C(/C=C/c1cccc(Oc2ccccc2)c1)NCc1ccc(C(=O)NCCc2ccccc2)cc1`, the GI50 in the experiment on BT-549, in the experiment on DU-145, with EKVX, in the experiment with KM12, in the experiment with LOX IMVI and in the experiment with MDA-MB-435 was > 100 µM (inactive) each time. The GI50 with MDA-N is > 100 µM (inactive); with NCI-H23, 43.7 µM (inactive); in the experiment with NCI-H460 it was > 100 µM (inactive); with OVCAR-3 it was > 100 µM (inactive); with SF-295 it was > 100 µM (inactive); in the experiment on SF-539, 14.8 µM (inactive). For the same compound, the GI50 in the experiment with SN12C is > 100 µM (inactive); with SNB-19 it was 29.9 µM (inactive); in the experiment with SR, > 100 µM (inactive); in the experiment with T47D, > 100 µM (inactive); with TK-10, > 100 µM (inactive); with U-251, 35 µM (inactive). Moreover, the GI50 in the experiment on UACC-257 was > 100 µM (inactive).

`CCN(CC)C(=S)SC(=S)N(CC)CC`: the GI50 was 27.3 µM (inactive) in the experiment on BT-549; 55.8 µM (inactive) with DU-145; 42.6 µM (inactive) with EKVX; 28.1 µM (inactive) with KM12; 23.4 µM (inactive) with LOX IMVI; 34.1 µM (inactive) with MDA-MB-435. Also, the GI50 in the experiment on MDA-N is 43.4 µM (inactive); in the experiment on NCI-H23, 26.2 µM (inactive); in the experiment with NCI-H460, 2.3 µM (inactive); with OVCAR-3, 37 µM (inactive); in the experiment on SF-295, 39.8 µM (inactive); with SF-539, > 62.8 µM (inactive). The GI50 was > 54.3 µM (inactive) in the experiment on SN12C; 49.8 µM (inactive) with SNB-19; 0.0482 µM (active) in the experiment on SR; 32.4 µM (inactive) in the experiment with T47D; > 51.2 µM (inactive) with TK-10; 36 µM (inactive) with U-251. Moreover, in the experiment with UACC-257, the GI50 was 41.6 µM (inactive).

Take `CCC(C#N)NC(=O)NC(C#N)CC` (centres undefined): the GI50 with BT-549, in the experiment on DU-145, in the experiment on EKVX, with KM12, with LOX IMVI and in the experiment on MDA-MB-435 was > 100 µM (inactive) in each case. For the same compound, the GI50 in the experiment with MDA-N, in the experiment with NCI-H23, with NCI-H460, with OVCAR-3, in the experiment on SF-295 and in the experiment on SF-539 was > 100 µM (inactive) each time. The GI50 with SN12C, in the experiment on SNB-19, in the experiment on SR, in the experiment on T47D, in the experiment on TK-10 and with U-251 was > 100 µM (inactive) in each case. The GI50 in the experiment on UACC-257 was > 100 µM (inactive).

In the case of `Cc1cc(/N=C/c2ccc(C#N)cc2)n(-c2ccccc2)n1`, the GI50 is 93.3 µM (inactive) in the experiment with BT-549; > 100 µM (inactive) in the experiment on DU-145; 94.8 µM (inactive) in the experiment on EKVX; 56.1 µM (inactive) in the experiment with KM12; 63.4 µM (inactive) in the experiment with LOX IMVI; 37 µM (inactive) in the experiment with MDA-MB-435. Besides, the GI50 in the experiment with MDA-N was 37.7 µM (inactive); in the experiment with NCI-H23, 56.1 µM (inactive); in the experiment with NCI-H460, > 100 µM (inactive); in the experiment with OVCAR-3, 38.9 µM (inactive); in the experiment on SF-295, 81.7 µM (inactive); with SF-539, 99.3 µM (inactive). The GI50 with SN12C is 82.2 µM (inactive); with SNB-19 it was 65.8 µM (inactive); in the experiment with SR it was 35.5 µM (inactive); with T47D, 48.9 µM (inactive); with TK-10 it was > 100 µM (inactive); with U-251, 71.6 µM (inactive). For the same compound, in the experiment on UACC-257, the GI50 was > 100 µM (inactive).

For `C=C1C(=O)O[C@H]2C3C(=C(C)CC[C@@H]12)C(=O)[C@@H]1OC31C` (some centres undefined), the GI50 in the experiment on BT-549 was 1.95 µM (inactive); in the experiment with DU-145 it was 12.5 µM (inactive); with EKVX, 14.4 µM (inactive); in the experiment with KM12 it was 5.73 µM (inactive); in the experiment on LOX IMVI, 2.11 µM (inactive); with MDA-MB-435 it was 2.72 µM (inactive). The GI50 in the experiment with MDA-N was 1.75 µM (inactive); in the experiment on NCI-H23, 2.21 µM (inactive); in the experiment on NCI-H460, 10.1 µM (inactive); in the experiment on OVCAR-3, 2 µM (inactive); with SF-295 it was 14 µM (inactive); with SF-539, 2.43 µM (inactive). Also, the GI50 in the experiment with SN12C was 1.63 µM (inactive); with SNB-19 it was 15.8 µM (inactive); in the experiment on SR, 0.622 µM (active); in the experiment with T47D it was 1.81 µM (inactive); with TK-10, 2.27 µM (inactive); with U-251, 13.4 µM (inactive). Besides, in the experiment with UACC-257, the GI50 is 2.24 µM (inactive).

As to `Nc1[nH]c(Nc2ccc(Cl)c(Cl)c2)nc2ncnc1-2`, the GI50 was 12.9 µM (inactive) in the experiment on BT-549; 7.41 µM (inactive) with DU-145; 1.98 µM (inactive) in the experiment on EKVX; 13.7 µM (inactive) with KM12; 14.8 µM (inactive) in the experiment with LOX IMVI; 16.6 µM (inactive) in the experiment on MDA-MB-435. The GI50 in the experiment with MDA-N was 17.5 µM (inactive); with NCI-H23 it was 18.3 µM (inactive); in the experiment on NCI-H460, 15.5 µM (inactive); in the experiment with OVCAR-3, 11.7 µM (inactive); in the experiment on SF-295, 17.5 µM (inactive); in the experiment on SF-539, 12.4 µM (inactive). The GI50 is 23.6 µM (inactive) in the experiment on SN12C; 14.1 µM (inactive) with SNB-19; 11 µM (inactive) in the experiment with SR; 8.55 µM (inactive) with T47D; 13.2 µM (inactive) in the experiment on TK-10; 15.2 µM (inactive) in the experiment with U-251. The GI50 with UACC-257 was 17.5 µM (inactive).
